Legend:
Experiment in all cases: relative viability (nuclei count vs DMSO), 5 days (fraction); higher = more cells survive
HOP-62 = tested on: HOP-62
Outline: (§1)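 Five library-drug doses in √10 steps were combined with a fixed anchor-drug dose, or a single drug was given alone, by pin tool to lung cancer cell lines in 1536-well plates the day after seeding. Nuclei were stained and counted after 5 days. Relative viability is the nuclei count in treated wells over that in vehicle wells, taken as the median of duplicate plates.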

EMC-BAC-2 = tested on: EMC-BAC-2
Outline: as §1

COR-L 105 = tested on: COR-L 105
Outline: as §1

NCI-H2405 = tested on: NCI-H2405
Outline: as §1

NCI-H1734 = tested on: NCI-H1734
Outline: as §1

COR-L23 = tested on: COR-L23
Outline: as §1

PC-14 = tested on: PC-14
Outline: as §1

NCI-H1993 = tested on: NCI-H1993
Outline: as §1

NCI-H1915 = tested on: NCI-H1915
Outline: as §1

HCC-78 = tested on: HCC-78
Outline: as §1

LK-2 = tested on: LK-2
Outline: as §1

NCI-H647 = details: first compound 0.002 µM
Outline: as §1

With CCNC(=O)c1noc(-c2cc(C(C)C)c(O)cc2O)c1-c1ccc(CN2CCOCC2)cc1 [Luminespib] + Nc1ncn([C@H]2C[C@H](O)[C@@H](CO)O2)c(=O)n1 [Decitabine] (partner 2 µM) the relative viability (HOP-62; first compound 0.002 µM) was 0.219, the relative viability (HOP-62; first compound 0.006325 µM) was 0.297 and the relative viability (HOP-62; first compound 0.02 µM) was 0.267. For the same molecule, the relative viability (HOP-62; first compound 0.06325 µM) was 0.223, the relative viability (HOP-62; first compound 0.2 µM) was 0.174 and the relative viability (EMC-BAC-2; first compound 0.002 µM) was 0.995. It also gave a relative viability (EMC-BAC-2; first compound 0.02 µM) of 0.783, a relative viability (EMC-BAC-2; first compound 0.06325 µM) of 0.564 and a relative viability (EMC-BAC-2; first compound 0.2 µM) of 0.237. For the same molecule, the relative viability (COR-L 105; first compound 0.002 µM) was 0.674, the relative viability (COR-L 105; first compound 0.006325 µM) was 0.654 and the relative viability (COR-L 105; first compound 0.02 µM) was 0.567. For the same molecule, the relative viability (COR-L 105; first compound 0.06325 µM) was 0.234, the relative viability (COR-L 105; first compound 0.2 µM) was 0.334 and the relative viability (NCI-H2405; first compound 0.002 µM) was 0.79. The relative viability (NCI-H2405; first compound 0.02 µM) was 0.627, the relative viability (NCI-H2405; first compound 0.06325 µM) was 0.297 and the relative viability (NCI-H2405; first compound 0.2 µM) was 0.191. It also gave a relative viability (NCI-H1734; first compound 0.002 µM) of 0.489, a relative viability (NCI-H1734; first compound 0.006325 µM) of 0.469 and a relative viability (NCI-H1734; first compound 0.02 µM) of 0.448. For the same molecule, the relative viability (NCI-H1734; first compound 0.06325 µM) was 0.251, the relative viability (NCI-H1734; first compound 0.2 µM) was 0.159 and the relative viability (COR-L23; first compound 0.002 µM) was 0.502. It also gave a relative viability (COR-L23; first compound 0.006325 µM) of 0.374, a relative viability (COR-L23; first compound 0.02 µM) of 0.353 and a relative viability (COR-L23; first compound 0.06325 µM) of 0.0888. For the same molecule, the relative viability (COR-L23; first compound 0.2 µM) was 0.0903, the relative viability (PC-14; first compound 0.002 µM) was 0.23 and the relative viability (PC-14; first compound 0.006325 µM) was 0.21. It also gave a relative viability (PC-14; first compound 0.02 µM) of 0.123, a relative viability (PC-14; first compound 0.06325 µM) of 0.076 and a relative viability (PC-14; first compound 0.2 µM) of 0.0786. For the same molecule, the relative viability (NCI-H1993; first compound 0.002 µM) was 0.596, the relative viability (NCI-H1993; first compound 0.006325 µM) was 0.579 and the relative viability (NCI-H1993; first compound 0.02 µM) was 0.48. It also gave a relative viability (NCI-H1993; first compound 0.06325 µM) of 0.573, a relative viability (NCI-H1993; first compound 0.2 µM) of 0.371 and a relative viability (NCI-H1915; first compound 0.002 µM) of 0.258. It also gave a relative viability (NCI-H1915; first compound 0.006325 µM) of 0.278, a relative viability (NCI-H1915; first compound 0.02 µM) of 0.254 and a relative viability (NCI-H1915; first compound 0.06325 µM) of 0.24. For the same molecule, the relative viability (NCI-H1915; first compound 0.2 µM) was 0.21, the relative viability (HCC-78; first compound 0.002 µM) was 0.644 and the relative viability (HCC-78; first compound 0.006325 µM) was 0.611. It also gave a relative viability (HCC-78; first compound 0.02 µM) of 0.666, a relative viability (HCC-78; first compound 0.06325 µM) of 0.725 and a relative viability (HCC-78; first compound 0.2 µM) of 0.448. The relative viability (LK-2; first compound 0.002 µM) was 0.32, the relative viability (LK-2; first compound 0.006325 µM) was 0.268 and the relative viability (LK-2; first compound 0.02 µM) was 0.192. For the same molecule, the relative viability (LK-2; first compound 0.06325 µM) was 0.0898, the relative viability (LK-2; first compound 0.2 µM) was 0.0914 and the relative viability (NCI-H647) was 0.391.

Source: the supplement of paper PMC10307832
